Laboratory results taken from patent US12281123B2, “Benzoxazinone compounds as KLK5/7 dual inhibitors” (MOLECULAR SKIN THERAPEUTICS, INC., priority 2019, dated 2025).
Marks after values point to notes of the source that are not given here.

Columns and labels:
Type in all cases: biochemical
Recombinant human KLK5 = target: T1, Recombinant human KLK5 (Homo sapiens, UniProt Q9Y337); experiment: Recombinant KLK5 chromogenic IC50 assay; settings: Table 2; assay protocol of Example 3; read-out: Recombinant KLK5 enzyme (IC50)
T1 construct: purchased SpeedBio (Gaithersburg, MD) / SpeedBioSystems; host or cells: HEK293
T1 sequence (Q9Y337 23-293): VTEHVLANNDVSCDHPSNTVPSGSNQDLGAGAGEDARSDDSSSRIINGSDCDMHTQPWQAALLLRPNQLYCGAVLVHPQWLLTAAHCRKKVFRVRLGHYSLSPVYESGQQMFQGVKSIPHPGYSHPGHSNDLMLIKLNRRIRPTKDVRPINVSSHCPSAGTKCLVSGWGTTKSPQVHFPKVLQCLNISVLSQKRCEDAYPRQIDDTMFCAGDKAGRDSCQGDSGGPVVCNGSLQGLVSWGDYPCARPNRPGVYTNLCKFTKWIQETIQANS
Excerpt: (§1) Human Kallikrein Proteins: Recombinant human KLK5 expressed in HEK293 was obtained from SpeedBio (Gaithersburg, MD). Recombinant proenzyme KLK-7 and recombinant proenzyme KLK-14 both expressed in mouse myeloma cells were from R&D Biosystems (Minneapolis, MN). Plasmin and thrombin were from Haematologic Technologies (Essex Junction, VT). Trypsin and Chymotrypsin were bought from Worthington Biochemical Corporation (Lakewood, NJ) and plasma kallikrein was from Prospec (East Brunswick, NJ). Neutrophil Elastase was obtained from Innovative Research (Peary Court, MI). Bovine recombinant enterokinase expressed in E. coli was bought from Sigma (St. Louis, MI). Matriptase expressed in E. coli was obtained from Enzo Life Sciences (Farmingdale, NY). The control inhibitors Nafamostat mesylate was from Sigma (St. Louis, MI) and (2-(2-fluorophenyl)-5,6,7,8-tetrahydro-4H-benzo[4,5]thieno[2,3-d][1,3]oxazin-4-one was from Interbioscreen (Moskow, Russia).
(§2) Substrates: S-2288 (D-Ile-Pro-Arg-pNA), CS-PSA (MeO-Suc-Arg-Pro-Tyr-pNA), S-2266 (H-D-Val-Leu-Arg-pNA) and S-2288 (H-D-Ile-Pro-Arg-pNA) were bought from Diapharma (West Chester, OH). MeOSuccAla-Ala-Pro-Val-pNA was purchased from Sigma (St Louis, MI). The substrates were dissolved in water at 10 mM and were frozen in aliquots at −20° C.
(§3) Assays: All assays were performed in 384 well polystyrene plates coated overnight with 0.1% Tween 20 at 4° C. The plates were then washed twice with 100 μL water and dried. For the determination of IC50 values, the inhibitors were diluted in serial dilutions of 1:3 intervals into pure DMSO at 50 fold of the intended final concentrations in the assays. Usually eight inhibitor dilutions and one DMSO control were prepared. The substrates were diluted into water at 2.2-fold the final concentration in the assay mixture. The wells of the plate were filled with 50 μL of the enzyme diluted in 2× assay buffer (100 mM Tris, 200 mM NaCl, 0.2% PEG, 0.01% Tween, 2 mM EDTA, pH 8.0) at twofold the intended concentration. Then 5 μL DMSO, 2.2 μL inhibitor and 45 μL substrate were added to start the reaction. The assays were monitored at 37° C. in a multi well plate reader at a wavelength of 405 nm (Molecular Devices, San Jose, CA) for 1 h. The tool inhibitor, nafamostat, was used as a control for trypsin, thrombin, KLK-5 and KLK-14 at 10 μM maximal concentration and (2-(2-fluorophenyl)-5,6,7,8-tetrahydro-4H-benzo[4,5]thieno[2,3-d][1,3]oxazin-4-one for KLK-7 at 5 μM.
(§4) The table summarizes assay conditions for the individual enzymes:
(§5) Data analysis: The progress curves of substrate hydrolysis were analyzed by linear regression of the final 20 min of the reaction. Fit of the dose response of the resulting rates to the following equation yielded the IC50:
(§6) [formula] with 1) c: the background rate at the highest inhibitor concentration; 2) d: the rate of the control reaction; 3) IC50: the IC50 of the inhibitor; 4) x: the inhibitor concentration; and 5) b: the slope.
(§7) Proteases: KLK5 (SpeedBioSystems); KLK7 (R&Dsystems) was activated with enterokinase (2 hours, 37° C.) prior to assay; Trypsin (Sigma Aldrich); Chymotrypsin (Sigma Aldrich); Factor Xa (Haematologic Technologies); Plasmin (Haematologic Technologies); KLK14 (R&Dsystems) was activated with enterokinase (1 hour, 37° C.) prior to assay; Thrombin (Haematologic Technologies); Neutrophil Elastase (Athens Research&Technology); and KLK1 (Prospec).

KLK7 = target: T2, KLK7 (Homo sapiens, UniProt P49862); experiment: Recombinant KLK7 chromogenic IC50 assay; settings: Table 2; assay protocol of Example 3; read-out: Recombinant KLK7 enzyme (IC50)
T2 construct: purchased R&D Biosystems (Minneapolis, MN) / R&Dsystems; host or cells: mouse myeloma cells
Excerpt: as §1, §2
Activation of KLK-7 and KLK-14: 150 μL 8 μM solution of the proenzymes of KLK-7 or KLK-14 in 50 mM Tris, 10 mM CaCl2, 150 mM NaCl, 0.05% (w/v) Brij-35, pH 7.5 were mixed with 150 μL 10 μg/mL bovine enterokinase in the same buffer and incubated for 2 h for KLK-7 and 1 h for KLK-14 at 37° C. After the incubation period, activation was stopped by addition of 6 μL 0.5 M EDTA pH 8.0.
as §3, §4, §5, §6, §7

[1] = system: KLK proteases in human skin extract; experiment: Inhibition of protease activity in human skin extract; settings: human skin extract; for Rate in Skin Assay: compound concentration not given
Procedure: Materials: The peptide substrates PS-01 (YRSR-pNA Tyr-Arg-Ser-Arg-pNA) (SEQ ID NO. 1) and PS-02 (Lys-His-Leu-Tyr-pNA) (SEQ ID NO. 2) were synthesized by Zamboni Chemical Solutions (Montreal, Canada). Human epidermis samples were obtained from Biopredic (Saint-Grégoire, France). The BCA protein assay kit was bought from VWR.
Preparation of skin extract: The epidermis was frozen and lyophilized. A sample of 15 mg lyophilized epidermis was immersed in 1 mL high salt buffer (100 mM Tris, 5 mM EDTA, 2M KCl, pH 8), frozen twice in dry ice and thawed. After incubation overnight at 4° C. and addition of six 2.4 mm metal beads, the sample was homogenized in a Bertin Precellys Homogenizer (Atkinson, NH) three times at […] for 20 seconds each and cooled in between for 30 seconds. After centrifugation at maximal speed in a desktop minifuge, the protein concentration of the supernatant was determined by BCA assay (˜0.5 mg/mL).
Inhibition of protease activity in skin extract: Stock solutions of 200, 66, 22 and 0 μM of the tested compound in DMSO were prepared. Substrate stocks of 1100 μM PS-01 and PS-02 were prepared by dissolving in water. The wells of a 384 well plate was filled with 50 μL 2× assay buffer (see above) and then 45 μL substrate stock and 5 μL of the test compound were added. The reaction was started by addition of 10 μL skin extract for the substrate PS-02 and 5 μL for the substrate PS-01. The substrate hydrolysis was monitored in multi-well plate reader at 405 nm.
Chromogenic substrate cleavage progressions of Compounds 1.001, 1.002, and 14 were tested according to human stratum corneum extract assay of Example 4 using KLK5 and KLK7 preferred chromogenic peptide substrates (PS-01 and PS-02). The proteolytic cleavage of KLK5 selective substrate in skin extract by Compounds 1.001, 1.002, and 14 are compared and shown in FIGS. 4A-4D. NSK refers to extract from skin freshly prepared; and OSK refers to extract from skin post freeze thaw.

T2 sequence (P49862 30-253): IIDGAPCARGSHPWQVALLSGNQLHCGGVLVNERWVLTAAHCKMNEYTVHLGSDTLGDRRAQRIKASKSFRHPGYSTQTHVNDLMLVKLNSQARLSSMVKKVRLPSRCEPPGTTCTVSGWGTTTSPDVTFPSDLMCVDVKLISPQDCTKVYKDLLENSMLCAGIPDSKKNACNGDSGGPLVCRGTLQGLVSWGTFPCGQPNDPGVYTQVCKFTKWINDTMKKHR

IC50 (Recombinant human KLK5) [nM] | IC50 (KLK7) [nM] | SMILES | Initial rate of proteolytic activity ([1]; Conc 1 μM) | Initial rate of substrate hydrolysis ([1]; Conc 1 μM) | Initial rate of proteolytic activity ([1]; Conc 3.3 μM) | Initial rate of substrate hydrolysis ([1]; Conc 3.3 μM) | Rate in Skin Assay [1]
1570 | 220 | CS(=O)(=O)c1ccc(CO)cc1-c1nc2cc3c(cc2c(=O)o1)OCCO3 [Compound 1.002, 2-(5-(Hydroxymethyl)-2-(methylsulfonyl)phenyl)-7,8-dihydro-4H-[1,4]dioxino[2′,3′:4,5]benzo[1,2-d][1,3]oxazin-4-one] | 0.1* Absorbance405/min | 0.06* Absorbance405/min | 0.09* Absorbance405/min | 0.05* Absorbance405/min | 0.009* Absorbance405/min
240 | 130 | CS(=O)(=O)c1ccccc1-c1nc2cc3c(cc2c(=O)o1)OCCO3 [Compound 14, reference compound] | 0.13* Absorbance405/min | 0.1* Absorbance405/min | 0.11* Absorbance405/min | 0.08* Absorbance405/min | 0.14* Absorbance405/min
